Experimental data from patent publication US20190270778A1, “Cyclic Peptides As C5a Receptor Antagonists” (priority 2016, published 2019).
Like-named read-outs stand apart in the source and are kept apart here.

Tests used:
[1] = amide bond
[2] = amide bond, 18-membered ring
[3] = the molecule shown is the open-chain precursor; amide bond; 18-membered ring
[4] = amide bond, 18-membered ring; remark: listed apart in the source

CCc1ccc2c(C[C@@H]3NC(=O)[C@@H](C[C@H]4CC[C@@H](O)CC4)NC(=O)[C@@H]4C[C@@H](OC(C)(C)C)CN4C(=O)[C@@H](NC(=O)[C@H](Cc4ccccc4)N(CC(=O)OC(C)(C)C)C(=O)OC(C)(C)C)CCCNC(=O)[C@H](CCCNC(=N)NS(=O)(=O)c4c(C)c(C)c5c(c4C)CC(C)(C)O5)NC3=O)cn(C(=O)OC(C)(C)C)c2c1 showed a ring closure, yield of all isomers ([1]; from CCc1ccc2c(C[C@H](NC(=O)[C@@H](C[C@H]3CC[C@@H](O)CC3)NC(=O)[C@@H]3C[C@@H](OC(C)(C)C)CN3)C(=O)N[C@@H](CCCNC(=N)NS(=O)(=O)c3c(C)c(C)c4c(c3C)CC(C)(C)O4)C(=O)NCCC[C@H](NC(=O)[C@H](Cc3ccccc3)N(CC(=O)OC(C)(C)C)C(=O)OC(C)(C)C)C(=O)O)cn(C(=O)OC(C)(C)C)c2c1) of 42%.

Work on Cc1c(C)c(S(=O)(=O)NC(=N)NCCC[C@@H]2NC(=O)[C@H](Cc3c[nH]c4ccccc34)NC(=O)[C@@H](C[C@H]3CC[C@@H](O)CC3)NC(=O)[C@@H]3C[C@H](NC(=O)OC(C)(C)C)CN3C(=O)[C@@H](NC(=O)[C@H](Cc3ccccc3)N(CC(=O)OC(C)(C)C)C(=O)OC(C)(C)C)CCCNC2=O)c(C)c2c1OC(C)(C)C2 yielded a ring closure, yield of all isomers ([1]; from Cc1c(C)c(S(=O)(=O)NC(=N)NCCC[C@H](NC(=O)[C@H](Cc2c[nH]c3ccccc23)NC(=O)[C@@H](C[C@H]2CC[C@@H](O)CC2)NC(=O)[C@@H]2C[C@H](NC(=O)OC(C)(C)C)CN2)C(=O)NCCC[C@H](NC(=O)[C@H](Cc2ccccc2)N(CC(=O)OC(C)(C)C)C(=O)OC(C)(C)C)C(=O)O)c(C)c2c1OC(C)(C)C2) of 100%.

In the case of Cc1c(C)c(S(=O)(=O)NC(=N)NCCC[C@@H]2NC(=O)[C@H](Cc3cn(C(=O)OC(C)(C)C)c4ccccc34)NC(=O)[C@@H](C[C@H]3CC[C@@H](O)CC3)NC(=O)[C@@H]3C[C@@H](OC(C)(C)C)CN3C(=O)[C@@H](NC(=O)OC(C)(C)C)CCCNC2=O)c(C)c2c1OC(C)(C)C2, the ring closure, yield of all isomers ([1]; from Cc1c(C)c(S(=O)(=O)NC(=N)NCCC[C@H](NC(=O)[C@H](Cc2cn(C(=O)OC(C)(C)C)c3ccccc23)NC(=O)[C@@H](C[C@H]2CC[C@@H](O)CC2)NC(=O)[C@@H]2C[C@@H](OC(C)(C)C)CN2)C(=O)NCCC[C@H](NC(=O)OC(C)(C)C)C(=O)O)c(C)c2c1OC(C)(C)C2, HATU, THF, 13.1 mM, 25.0 °C, 0.25 h) was 95.3%.

Cc1c(C)c(S(=O)(=O)NC(=N)NCCC[C@@H]2NC(=O)[C@H](Cc3cn(C(=O)OC(C)(C)C)c4ccccc34)NC(=O)[C@@H](C[C@H]3CC[C@@H](O)CC3)NC(=O)[C@@H]3C[C@@H](OC(C)(C)C)CN3C(=O)[C@@H](NC(=O)[C@H](Cc3ccccc3)N(CC(=O)OC(C)(C)C)C(=O)OC(C)(C)C)CCCNC2=O)c(C)c2c1OC(C)(C)C2 showed a ring closure, yield of all isomers ([1]; from Cc1c(C)c(S(=O)(=O)NC(=N)NCCC[C@H](NC(=O)[C@H](Cc2cn(C(=O)OC(C)(C)C)c3ccccc23)NC(=O)[C@@H](C[C@H]2CC[C@@H](O)CC2)NC(=O)[C@@H]2C[C@@H](OC(C)(C)C)CN2)C(=O)NCCC[C@H](NC(=O)[C@H](Cc2ccccc2)N(CC(=O)OC(C)(C)C)C(=O)OC(C)(C)C)C(=O)O)c(C)c2c1OC(C)(C)C2, HATU, THF, 14.1 mM, 25.0 °C, 0.5 h) of 87%.

With Cc1c(C)c(S(=O)(=O)NC(=N)NCCC[C@@H]2NC(=O)[C@H](Cc3cn(C(=O)OC(C)(C)C)c4ccccc34)NC(=O)[C@@H](C[C@H]3CC[C@@H](O)CC3)NC(=O)[C@@H]3C[C@@H](OCC(=O)OC(C)(C)C)CN3C(=O)[C@@H](NC(=O)[C@H](Cc3ccccc3)N(CC(=O)OC(C)(C)C)C(=O)OC(C)(C)C)CCCNC2=O)c(C)c2c1OC(C)(C)C2 the ring closure, yield of all isomers ([1]; from Cc1c(C)c(S(=O)(=O)NC(=N)NCCC[C@H](NC(=O)[C@H](Cc2cn(C(=O)OC(C)(C)C)c3ccccc23)NC(=O)[C@@H](C[C@H]2CC[C@@H](O)CC2)NC(=O)[C@@H]2C[C@@H](OCC(=O)OC(C)(C)C)CN2)C(=O)NCCC[C@H](NC(=O)[C@H](Cc2ccccc2)N(CC(=O)OC(C)(C)C)C(=O)OC(C)(C)C)C(=O)O)c(C)c2c1OC(C)(C)C2) was 83%.

For Cc1c(C)c(S(=O)(=O)NC(=N)NCCC[C@@H]2NC(=O)[C@H](Cc3cn(C(=O)OC(C)(C)C)c4ncccc34)NC(=O)[C@@H](C[C@H]3CC[C@@H](O)CC3)NC(=O)[C@@H]3C[C@@H](OC(C)(C)C)CN3C(=O)[C@@H](NC(=O)[C@H](Cc3ccccc3)N(CC(=O)OC(C)(C)C)C(=O)OC(C)(C)C)CCCNC2=O)c(C)c2c1OC(C)(C)C2, the ring closure, yield of all isomers ([1]; from Cc1c(C)c(S(=O)(=O)NC(=N)NCCC[C@H](NC(=O)[C@H](Cc2cn(C(=O)OC(C)(C)C)c3ncccc23)NC(=O)[C@@H](C[C@H]2CC[C@@H](O)CC2)NC(=O)[C@@H]2C[C@@H](OC(C)(C)C)CN2)C(=O)NCCC[C@H](NC(=O)[C@H](Cc2ccccc2)N(CC(=O)OC(C)(C)C)C(=O)OC(C)(C)C)C(=O)O)c(C)c2c1OC(C)(C)C2) was 93.4%.

Molecule “((31R,6S,9S,15S,19R,20aS)-6-((1H-indol-3-yl)methyl)-15-((S)-2-((carboxymethyl)amino)-3-phenylpropanamido)-9-(3-guanidinopropyl)-3-(((1s,4S)-4-hydroxycyclohexyl)methyl)-1,4,7,10,16-pentaoxoicosahydropyrrolo[1,2-a][1,4,7,10,13]pentaazacyclooctadecin-19-yl)glycine” has a ring closure, yield after HPLC ([2]; with chain assembly) of 19.4%.

Work on “((S)-1-(((3R,6S,9S,15S,19R,20aS)-6-((1H-indol-3-yl)methyl)-19-acetamido-9-(3-guanidinopropyl)-3-(((1s,4S)-4-hydroxycyclohexyl)methyl)-1,4,7,10,16-pentaoxoicosahydropyrrolo[1,2-a][1,4,7,10,13]pentaazacyclooctadecin-15-yl)amino)-1-oxo-3-phenylpropan-2-yl)glycine” yielded a ring closure, yield after HPLC ([2]; 2 steps) of 20%.

“((S)-1-(((3R,6S,9S,15S,19R,20aS)-6-((1H-indol-3-yl)methyl)-19-amino-9-(3-guanidinopropyl)-3-(((1s,4S)-4-hydroxycyclohexyl)methyl)-1,4,7,10,16-pentaoxoicosahydropyrrolo[1,2-a][1,4,7,10,13]pentaazacyclooctadecin-15-yl)amino)-1-oxo-3-phenylpropan-2-yl)glycine” showed a ring closure, yield after HPLC ([2]; 2 steps) of 6.6%.

Work on “((S)-1-(((3R,6S,9S,15S,19R,20aS)-9-(3-guanidinopropyl)-19-hydroxy-3-(((1s,4S)-4-hydroxycyclohexyl)methyl)-6-((5-methoxy-1H-indol-3-yl)methyl)-1,4,7,10,16-pentaoxoicosahydropyrrolo[1,2-a][1,4,7,10,13]pentaazacyclooctadecin-15-yl)amino)-1-oxo-3-phenylpropan-2-yl)glycine” yielded a ring closure, yield after HPLC ([2]; 2 steps) of 6%.

Work on “((S)-1-(((3R,6S,9S,15S,19R,20aS)-9-(3-guanidinopropyl)-19-hydroxy-3-(((1s,4S)-4-hydroxycyclohexyl)methyl)-6-((6-methoxy-1H-indol-3-yl)methyl)-1,4,7,10,16-pentaoxoicosahydropyrrolo[1,2-a][1,4,7,10,13]pentaazacyclooctadecin-15-yl)amino)-1-oxo-3-phenylpropan-2-yl)glycine” yielded a ring closure, yield after HPLC ([2]; with chain assembly) of 2.3%.

In the case of “((S)-1-(((3R,6S,9S,15S,19S,20aS)-6-((1H-indol-3-yl)methyl)-19-acetamido-9-(3-guanidinopropyl)-3-(((1s,4S)-4-hydroxycyclohexyl)methyl)-1,4,7,10,16-pentaoxoicosahydropyrrolo[1,2-a][1,4,7,10,13]pentaazacyclooctadecin-15-yl)amino)-1-oxo-3-phenylpropan-2-yl)glycine”, the ring closure, yield after HPLC ([2]; 2 steps) was 30%.

Molecule “((S)-1-(((31R,6S,9S,15S,19R,20aS)-6-((1H-indazol-3-yl)methyl)-9-(3-guanidinopropyl)-19-hydroxy-3-(((1s,4S)-4-hydroxycyclohexyl)methyl)-1,4,7,10,16-pentaoxoicosahydropyrrolo[1,2-a][1,4,7,10,13]pentaazacyclooctadecin-15-yl)amino)-1-oxo-3-phenylpropan-2-yl)glycine” has a ring closure, yield after HPLC ([2]; 2 steps) of 35%.

With “H-Hyp(tBu)-dAla(cis-4-hydroxycyclohexyl)-Trp(Boc,6-Et)-Arg(Pbf)-(Nδ)Orn(Nα-[Boc-N(CH2CO2tBu)-Phe])-OH” the ring closure, isolated yield [3] was 42%.

“H-Pro((4S)-NHBoc)-dAla(3-(cis-4-hydroxycyclohexyl))-Trp(Boc)-Arg(Pbf)-Orn(Nα-[Boc-N(CH2CO2tBu)-Phe]; chain through Nδ)-OH” gave a ring closure, crude yield ([4]; the molecule shown is the open-chain precursor, HATU/NMM, THF/DMF) of 100%.

Work on “H-Pro-dAla(3-(cis-4-hydroxycyclohexyl))-Ala(3-(1-Boc-1H-pyrrolo[2,3-b]pyridin-3-yl))-Arg(Pbf)-Orn(Nα-[Boc-N(CH2CO2tBu)-Phe]; chain through Nδ)-OH” yielded a ring closure, crude yield ([4]; the molecule shown is the open-chain precursor) of 100%.

In the case of “tert-butyl-3-(((3R,6S,9S,15S,19R,20aS)-19-(tert-butoxy)-15-((tert-butoxycarbonyl)amino)-3-(((1s,4S)-4-hydroxycyclohexyl)methyl)-1,4,7,10,16-pentaoxo-9-(3-(3-((2,2,4,6,7-pentamethyl-2,3-dihydrobenzofuran-5-yl)sulfonyl)guanidino)propyl)icosahydropyrrolo[1,2-a][1,4,7,10,13]pentaazacyclooctadecin-6-yl)methyl)-1H-indole-1-carboxylate”, the ring closure, crude yield ([4]; HATU/NMM, THF/DMF 10:1, 13.1 mM) was 95.3%.
